Laboratory results reported in ChEMBL document CHEMBL1134117, “Synthesis of substituted 5[H]phenanthridin-6-ones as potent poly(ADP-ribose)polymerase-1 (PARP1) inhibitors” (Bioorg Med Chem Lett, 2001).

Target: Poly [ADP-ribose] polymerase 1 (Homo sapiens, UniProt P09874)
Assay: Inhibitory concentration against purified recombinant human Poly (ADP-ribose) polymerase 1

Poly [ADP-ribose] polymerase 1, sequence (P09874 whole entry): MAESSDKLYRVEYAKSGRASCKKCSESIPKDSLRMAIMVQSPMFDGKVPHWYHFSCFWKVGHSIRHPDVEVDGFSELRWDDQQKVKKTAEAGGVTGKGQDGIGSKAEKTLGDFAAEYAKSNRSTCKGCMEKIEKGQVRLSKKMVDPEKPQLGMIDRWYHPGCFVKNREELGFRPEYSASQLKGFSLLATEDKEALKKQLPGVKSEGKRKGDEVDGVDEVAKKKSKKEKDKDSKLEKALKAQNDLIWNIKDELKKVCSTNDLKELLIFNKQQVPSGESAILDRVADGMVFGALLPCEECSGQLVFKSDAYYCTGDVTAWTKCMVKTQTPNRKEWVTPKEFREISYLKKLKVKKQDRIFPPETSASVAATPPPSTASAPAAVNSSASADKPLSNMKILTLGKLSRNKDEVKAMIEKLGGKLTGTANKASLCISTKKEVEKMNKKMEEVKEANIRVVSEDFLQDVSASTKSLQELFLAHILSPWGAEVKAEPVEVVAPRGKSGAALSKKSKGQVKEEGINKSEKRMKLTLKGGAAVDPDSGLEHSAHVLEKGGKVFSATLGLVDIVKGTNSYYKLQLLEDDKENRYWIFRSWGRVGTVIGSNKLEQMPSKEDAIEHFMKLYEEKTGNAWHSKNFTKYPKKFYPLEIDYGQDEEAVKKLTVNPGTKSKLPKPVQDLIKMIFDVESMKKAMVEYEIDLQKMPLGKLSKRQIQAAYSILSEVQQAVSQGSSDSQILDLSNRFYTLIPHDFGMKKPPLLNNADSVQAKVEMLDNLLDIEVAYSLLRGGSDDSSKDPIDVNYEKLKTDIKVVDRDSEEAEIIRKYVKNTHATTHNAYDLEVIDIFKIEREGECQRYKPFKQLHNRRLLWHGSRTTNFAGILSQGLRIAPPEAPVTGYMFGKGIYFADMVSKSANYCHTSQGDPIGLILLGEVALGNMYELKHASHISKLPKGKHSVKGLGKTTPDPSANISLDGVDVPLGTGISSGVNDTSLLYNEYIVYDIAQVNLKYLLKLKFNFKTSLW

IC50 [nM]	SMILES
> 60000	O=C(O)c1cccc2c(O)nc3ccccc3c12
10	O=c1[nH]c2cc(S(=O)(=O)O)ccc2c2ccc(F)cc12
156	O=c1[nH]c2ccc([N+](=O)[O-])cc2c2ccccc12
180	Nc1cc2[nH]c(=O)c3ccccc3c2cc1N
520	O=c1[nH]c2ccccc2c2ccccc12
> 100000	O=S(=O)(O)c1ccc2c(c1)nc(O)c1cc(S(=O)(=O)O)ccc12
180	Nc1ccc2[nH]c(=O)c3ccccc3c2c1
57	O=C(O)c1ccc2c(c1)[nH]c(=O)c1ccccc12
92	Cc1cccc2c(O)nc3cc(F)ccc3c12
136	Cc1cccc2c(=O)[nH]c3cc(C(F)(F)F)c([N+](=O)[O-])cc3c12
